Read-outs that look alike come from different tables or passages of the source.
How the values were obtained:
[1] = test system: Plasmodium falciparum 3D7-A10 parasites; experiment: Stage specificity assay (8-h exposure of synchronized stages, IC50^8h); type: cell-based; details: for IC50: Plasmodium falciparum
[2] = test system: asynchronous 3D7-A10 parasite cultures; experiment: Standard 72-h exposure asexual blood stage susceptibility assay (IC50^72h); type: cell-based, Plasmodium falciparum; details: Plasmodium falciparum, 3D7, 72 h, read-out: Overall (72hr assay) Mean IC50 (IC50^72h)
[3] = test system: 3D7-MR4 trophozoite parasite-infected RBCs; experiment: Metabolomic profiling (hydrophilic metabolite changes, UHPLC-MS); type: cell-based, Plasmodium falciparum

For `CNc1nc(NCCCN(C)C)c2sc(-c3cccc(C(F)(F)F)c3)cc2n1` [MMV668311], the “Ratio lowest IC50 8hr/IC50 72hr” value ([1]; 3D7-A10) was 1.1, the IC50 ([1]; 3D7, read-out: Early rings Mean IC50 (IC50^8h), 8-h exposure 0–8 hr, 3D7-A10, survival at 60 h) was 140 nM and the IC50 ([1]; 3D7, read-out: Early trophozoites Mean IC50 (IC50^8h), 8-h exposure 16–24 hr, 3D7-A10, survival at 60 h) was 68.9 nM. For the same molecule, the IC50 ([1]; 3D7, read-out: Late rings Mean IC50 (IC50^8h), 8-h exposure 8–16 hr, 3D7-A10, survival at 60 h) was 97.7 nM, the IC50 ([1]; 3D7, read-out: Late trophozoites Mean IC50 (IC50^8h), 8-h exposure 24–32 hr, 3D7-A10, survival at 60 h) was 122 nM and the IC50 ([1]; 3D7, read-out: Schizonts Mean IC50 (IC50^8h), 8-h exposure 32–40 hr, 3D7-A10, survival at 60 h) was 382 nM. The “Stage of peak activity (Figure 6)” value ([1]; period when the parasite was most susceptible (lowest IC50^8h)) was “rings and trophozoites”, the IC50 [2] was 63.5 nM and the “changes within the set of metabolites detected (low fold change group)” value ([3]; 10 × IC50^72h, 2.5 hr, trophozoites) was “did not induce major changes”. For the same molecule, the “Log2(fold changes) 3-phosphoglycerate” value ([3]; metabolite 3-phosphoglycerate, log2 fold change) was 0.1799, the “Log2(fold changes) 4-Pyridoxic acid” value ([3]; metabolite 4-Pyridoxic acid, log2 fold change) was 0.0000 and the “Log2(fold changes) 4-aminobutyrate” value ([3]; metabolite 4-aminobutyrate, log2 fold change) was 0.0013. For the same molecule, the “Log2(fold changes) 4-phosphopantetheine” value ([3]; metabolite 4-phosphopantetheine, log2 fold change) was 0.0000, the “Log2(fold changes) 4-phosphopantothenate” value ([3]; metabolite 4-phosphopantothenate, log2 fold change) was 0.0507 and the “Log2(fold changes) 5-aminopentanoic acid” value ([3]; metabolite 5-aminopentanoic acid, log2 fold change) was 0.0000. For the same molecule, the “Log2(fold changes) 5-methyl-THF” value ([3]; metabolite 5-methyl-THF, log2 fold change) was 0.0000, the “Log2(fold changes) 5-phosphoribosyl-1-pyrophosphate” value ([3]; metabolite 5-phosphoribosyl-1-pyrophosphate, log2 fold change) was -0.0449 and the “Log2(fold changes) 6-phospho-D-gluconate” value ([3]; metabolite 6-phospho-D-gluconate, log2 fold change) was 0.0744. The “Log2(fold change) HVDD” value ([3]; metabolite HVDD) was 0.6397, the “Log2(fold change) Hydroxyisocaproic acid” value ([3]; metabolite Hydroxyisocaproic acid) was 0.0000 and the “Log2(fold change) IDP” value ([3]; metabolite IDP) was 0.0000. For the same molecule, the “Log2(fold change) IMP” value ([3]; metabolite IMP) was 0.0136, the “Log2(fold change) Inositol” value ([3]; metabolite Inositol) was 0.0000 and the “Log2(fold change) Isopentyl-PP” value ([3]; metabolite Isopentyl-PP) was 0.0000. The “Log2(fold change) L-arginino-succinate” value ([3]; metabolite L-arginino-succinate) was 0.0000, the “Log2(fold change) LD” value ([3]; metabolite LD) was 0.0000 and the “Log2(fold change) Myristoyl/tetradecanoyl-CoA” value ([3]; metabolite Myristoyl/tetradecanoyl-CoA) was 0.0000. For the same molecule, the “Log2(fold change) N-Acetyl-L-alanine” value ([3]; metabolite N-Acetyl-L-alanine) was 0.2894, the “Log2(fold change) N-acetyl-L-ornithine” value ([3]; metabolite N-acetyl-L-ornithine) was 0.9240 and the “Log2(fold change) N-acetyl-glucosamine-1/6-phosphate” value ([3]; metabolite N-acetyl-glucosamine-1/6-phosphate) was -0.0813. The “Log2(fold change) N-acetyl-glutamate” value ([3]; metabolite N-acetyl-glutamate) was 0.1520, the “Log2(fold change) N-acetyl-glutamine” value ([3]; metabolite N-acetyl-glutamine) was 0.0000 and the “Log2(fold change) N-carbamoyl-L-aspartate” value ([3]; metabolite N-carbamoyl-L-aspartate) was 0.0640. The “Log2(fold change) NAD+” value ([3]; metabolite NAD+) was 0.0000, the “Log2(fold change) NADH” value ([3]; metabolite NADH) was 0.1408 and the “Log2(fold change) NADP+” value ([3]; metabolite NADP+) was -0.0507. For the same molecule, the “Log2(fold change) NADPH” value ([3]; metabolite NADPH) was 0.0063, the “Log2(fold change) O-acetyl-L-serine” value ([3]; metabolite O-acetyl-L-serine) was 0.0000 and the “Log2(fold change) Octoluse 8/1P” value ([3]; metabolite Octoluse 8/1P) was 0.0000. The “Log2(fold change) Octoluse Bisphosphate” value ([3]; metabolite Octoluse Bisphosphate) was -0.0578, the “Log2(fold change) PD” value ([3]; metabolite PD) was -0.3993 and the “Log2(fold change) PE” value ([3]; metabolite PE) was 0.0346. For the same molecule, the “Log2(fold change) PEE” value ([3]; metabolite PEE) was 0.4823, the “Log2(fold change) PEEK” value ([3]; metabolite PEEK) was 0.0000 and the “Log2(fold change) PVNF” value ([3]; metabolite PVNF) was 0.0144. The “Log2(fold change) Pyroglutamic acid” value ([3]; metabolite Pyroglutamic acid) was 0.0000, the “Log2(fold change) Pyrophosphate” value ([3]; metabolite Pyrophosphate) was 0.0000 and the “Log2(fold change) Ribose-5-phosphate” value ([3]; metabolite Ribose-5-phosphate) was -0.1895. The “Log2(fold change) S-adenosyl-L-homocysteine” value ([3]; metabolite S-adenosyl-L-homocysteine) was -0.2447, the “Log2(fold change) S-adenosyl-L-methioninamine” value ([3]; metabolite S-adenosyl-L-methioninamine) was 0.0000 and the “Log2(fold change) S-adenosyl-L-methionine” value ([3]; metabolite S-adenosyl-L-methionine) was 0.0000. The “Log2(fold change) S-methyl-5'-thioadenosine” value ([3]; metabolite S-methyl-5'-thioadenosine) was 0.0000, the “Log2(fold change) SD” value ([3]; metabolite SD) was 0.2373 and the “Log2(fold change) SDL” value ([3]; metabolite SDL) was 0.0000. For the same molecule, the “Log2(fold change) SID” value ([3]; metabolite SID) was 0.1033, the “Log2(fold change) Sedoheptulose bisphosphate” value ([3]; metabolite Sedoheptulose bisphosphate) was 0.1946 and the “Log2(fold change) Thiamine pyrophosphate” value ([3]; metabolite Thiamine pyrophosphate) was 0.0000. The “Log2(fold changes) UDP-D-glucose” value ([3]; metabolite UDP-D-glucose, log2 fold change) was 0.0458, the “Log2(fold changes) UDP-D-glucuronate” value ([3]; metabolite UDP-D-glucuronate, log2 fold change) was -0.0320 and the “Log2(fold changes) UDP-N-acetyl-glucosamine” value ([3]; metabolite UDP-N-acetyl-glucosamine, log2 fold change) was -0.0391. For the same molecule, the “Log2(fold changes) UDP” value ([3]; metabolite UDP, log2 fold change) was -0.7320, the “Log2(fold changes) UMP” value ([3]; metabolite UMP, log2 fold change) was -0.3054 and the “Log2(fold changes) UTP” value ([3]; metabolite UTP, log2 fold change) was 0.0564. For the same molecule, the “Log2(fold change) hydroxyphenylpyruvate” value ([3]; metabolite hydroxyphenylpyruvate) was 0.0000, the “Log2(fold change) hydroxyproline/Aminolevulinate” value ([3]; metabolite hydroxyproline/Aminolevulinate) was 0.0878 and the “Log2(fold change) hypoxanthine” value ([3]; metabolite hypoxanthine) was 0.2077. The “Log2(fold change) indole” value ([3]; metabolite indole) was 0.0000, the “Log2(fold change) inosine” value ([3]; metabolite inosine) was 0.0666 and the “Log2(fold change) isoleucine” value ([3]; metabolite isoleucine) was 0.1965. The “Log2(fold change) lactate” value ([3]; metabolite lactate) was 0.0645, the “Log2(fold change) leucine” value ([3]; metabolite leucine) was 0.2550 and the “Log2(fold change) lysine” value ([3]; metabolite lysine) was 0.0000. For the same molecule, the “Log2(fold change) malate” value ([3]; metabolite malate) was 0.0044, the “Log2(fold change) maleic acid” value ([3]; metabolite maleic acid) was -0.0062 and the “Log2(fold change) methionine” value ([3]; metabolite methionine) was 0.4374. The “Log2(fold change) myo-inositol” value ([3]; metabolite myo-inositol) was 0.0000, the “Log2(fold change) nicotinamide mononucleotide” value ([3]; metabolite nicotinamide mononucleotide) was 0.0000 and the “Log2(fold change) nicotinate” value ([3]; metabolite nicotinate) was 0.1094. For the same molecule, the “Log2(fold change) ornithine” value ([3]; metabolite ornithine) was 0.0000, the “Log2(fold change) orotate” value ([3]; metabolite orotate) was -0.2365 and the “Log2(fold change) orotidine-5'-phosphate” value ([3]; metabolite orotidine-5'-phosphate) was -0.1452. For the same molecule, the “Log2(fold change) oxaloacetate” value ([3]; metabolite oxaloacetate) was 0.0000, the “Log2(fold change) p-aminobenzoate” value ([3]; metabolite p-aminobenzoate) was 0.0000 and the “Log2(fold change) p-hydroxybenzoate” value ([3]; metabolite p-hydroxybenzoate) was 0.0000. The “Log2(fold change) pantothenate” value ([3]; metabolite pantothenate) was -0.0310, the “Log2(fold change) phenylalanine” value ([3]; metabolite phenylalanine) was 0.2649 and the “Log2(fold change) phenylpyruvate” value ([3]; metabolite phenylpyruvate) was 0.0000. The “Log2(fold change) phosphoenolpyruvate” value ([3]; metabolite phosphoenolpyruvate) was 0.2026, the “Log2(fold change) prephenate” value ([3]; metabolite prephenate) was 0.0000 and the “Log2(fold change) proline” value ([3]; metabolite proline) was 0.1500. The “Log2(fold change) pyridoxine” value ([3]; metabolite pyridoxine) was 0.2387, the “Log2(fold change) pyruvate” value ([3]; metabolite pyruvate) was 0.0542 and the “Log2(fold change) riboflavin” value ([3]; metabolite riboflavin) was 0.0000. For the same molecule, the “Log2(fold change) ribose” value ([3]; metabolite ribose) was 0.4509, the “Log2(fold change) ribose-phosphate” value ([3]; metabolite ribose-phosphate) was -0.2314 and the “Log2(fold change) ribulose-5-phosphate” value ([3]; metabolite ribulose-5-phosphate) was -0.1585. For the same molecule, the “Log2(fold change) serine” value ([3]; metabolite serine) was 0.1402, the “Log2(fold change) sn-glycerol-3-phosphate” value ([3]; metabolite sn-glycerol-3-phosphate) was 0.1282 and the “Log2(fold change) succinate/Methylmalonic acid” value ([3]; metabolite succinate/Methylmalonic acid) was 0.1707. The “Log2(fold change) succinyl-CoA/methylmalonyl-CoA” value ([3]; metabolite succinyl-CoA/methylmalonyl-CoA) was 0.2947, the “Log2(fold change) taurine” value ([3]; metabolite taurine) was 0.0000 and the “Log2(fold change) thiamine” value ([3]; metabolite thiamine) was 0.0000. The “Log2(fold change) threonine/homoserine” value ([3]; metabolite threonine/homoserine) was 0.3600, the “Log2(fold change) thymidine” value ([3]; metabolite thymidine) was 0.0000 and the “Log2(fold changes) thymine” value ([3]; metabolite thymine, log2 fold change) was 0.0000. The “Log2(fold changes) trehalose-6-Phosphate” value ([3]; metabolite trehalose-6-Phosphate, log2 fold change) was 0.0000, the “Log2(fold changes) tryptophan” value ([3]; metabolite tryptophan, log2 fold change) was 0.2172 and the “Log2(fold changes) tyrosine” value ([3]; metabolite tyrosine, log2 fold change) was 0.2350. For the same molecule, the “Log2(fold changes) uridine” value ([3]; metabolite uridine, log2 fold change) was 0.0000.
